Consider 18 compounds from patent US5140009A (Tap Pharmaceuticals, Inc., priority 1990, dated 1992).

Numbered stars: 1 amine (or outer) side, 2 acyl side, 3 side chain; on linkers, the order of the positions; unused ones are H or OH. Square brackets hold non-standard residues; d marks the D form. Peptide text beside a SMILES is read from it. * marks the point of attachment. Propanoyl(3-indol-3-yl) = O=C(CCc1c[nH]c2ccccc12)*; Propanoyl(3-(4-F-phenyl)) = O=C(CCc1ccc(F)cc1)*; Propanoyl(3-(3-pyridyl)) = O=C(CCc1cccnc1)*; Acetyl(1-naphthyl) = O=C(Cc1cccc2ccccc12)*; 1Nal = N[C@@H](Cc1cccc2ccccc12)C(=O)O; Desaminohistidyl = O=C(CCc1c[nH]cn1)*; d1Nal = N[C@H](Cc1cccc2ccccc12)C(=O)O; d2Nal = N[C@H](Cc1ccc2ccccc2c1)C(=O)O; Lys(iPr) = CC(C)NCCCC[C@H](N)C(=O)O; NMeY = CN[C@@H](Cc1ccc(O)cc1)C(=O)O; dBta = N[C@H](Cc1csc2ccccc12)C(=O)O; d3Pal = N[C@H](Cc1cccnc1)C(=O)O; Cha = N[C@@H](CC1CCCCC1)C(=O)O; d2Thi = N[C@H](Cc1cccs1)C(=O)O; dCha = N[C@H](CC1CCCCC1)C(=O)O; Nicotinoyl = O=C(c1cccnc1)*; X12 = O=C(c1ccc(F)c(Cl)c1)*; X14 = O=C(CCn1ccc2ccccc21)*; dOrn = NCCC[C@@H](N)C(=O)O; X9 = O=C(CCc1ccc(Br)cc1)*; Morpholide = C1CN(*)CCO1; PhAc = O=C(Cc1ccccc1)*; CO = O=C([*:1])[*:2]; Bn = c1ccc(C*)cc1

One experiment concerns the target T1, LHRH receptors (Rattus norvegicus, UniProt P30969).
T1 construct: Pituitary membranes containing LHRH receptors are prepared in batches from quick-frozen rat pituitaries; tissue Hilltop Labs; host or cells: rat pituitary membranes
T1 sequence (P30969 1-327): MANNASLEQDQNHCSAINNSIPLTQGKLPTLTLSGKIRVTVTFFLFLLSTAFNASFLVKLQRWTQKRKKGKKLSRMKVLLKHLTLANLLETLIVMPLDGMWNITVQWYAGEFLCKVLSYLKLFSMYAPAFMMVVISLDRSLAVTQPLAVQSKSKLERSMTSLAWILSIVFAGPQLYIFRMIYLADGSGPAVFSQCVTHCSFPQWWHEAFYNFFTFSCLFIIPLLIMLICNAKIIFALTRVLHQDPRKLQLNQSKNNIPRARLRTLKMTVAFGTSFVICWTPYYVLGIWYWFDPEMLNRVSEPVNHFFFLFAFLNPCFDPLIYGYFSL
Description: Receptor Binding (radioligand receptor binding assay). Conditions: table 3; rat pituitary membranes, radioiodinated [D-Leu^6 -des Gly^10 ]-LHRH ethyl amide 50 pM, 2 hours at 4° C.; read-out: Receptor Binding pkI (converted).
Regarding `CCNC(=O)[C@@H]1CCCN1C(=O)[C@H](CCCNC(=N)N)NC(=O)[C@H](CC(C)C)NC(=O)[C@@H](CCCNC(=N)N)NC(=O)[C@H](Cc1ccc(O)cc1)NC(=O)[C@H](CO)NC(=O)Cc1cccc2ccccc12` [Compound 37, (4-9)[N-(1-Naphthylacetyl)-Ser^4 -D-Arg^6 -Pro^9 -NHEt] LHRH] ({Acetyl(1-naphthyl)}-SY[dR]LRP-NHEt), the Ki was 20.4 nM.
On to `CCNC(=O)[C@@H]1CCCN1C(=O)[C@H](CCCNC(=N)N)NC(=O)[C@H](CC(C)C)NC(=O)[C@@H](CC1CCCCC1)NC(=O)[C@H](Cc1ccc(O)cc1)NC(=O)[C@H](CO)NC(=O)CCn1ccc2ccccc21` [Compound 34, (4-9)[N-(3-(1-Indole)propionyl)-Ser^4 -D-Cha^6 -Pro^9 -NHEt]LHRH] (X14-SY[dCha]LRP-NHEt), for which the Ki is 41.7 nM.
As for `CCNC(=O)[C@@H]1CCCN1C(=O)[C@H](CCCNC(=N)N)NC(=O)[C@H](CC(C)C)NC(=O)[C@@H](CCCN)NC(=O)[C@H](Cc1ccc(O)cc1)NC(=O)[C@H](CO)NC(=O)CCc1c[nH]c2ccccc12` [Compound 49, (4-9) [N-(3-(3-indole)propionyl)-Ser^4 -D-Orn^6 -Pro^9 NHEt]LHRH] ({Propanoyl(3-indol-3-yl)}-SY[dOrn]LRP-NHEt), the Ki was 55 nM.
On the same count and under the same terms, in the case of `CCNC(=O)N[C@@H](Cc1ccccc1)C(=O)N[C@@H](Cc1c[nH]c2ccccc12)C(=O)N[C@@H](CO)C(=O)N[C@@H](Cc1ccc(O)cc1)C(=O)N[C@H](Cc1c[nH]c2ccccc12)C(=O)N[C@@H](CC(C)C)C(=O)N[C@@H](CCCNC(=N)N)C(=O)N1CCC[C@H]1C(=O)NCC` [Compound 127, (2-9)[N-(N-alpha-Ethylaminocarbonyl)-Phe^2 -D-Trp^6 -Pro^9 NHEt]LHRH] ({NHEt-CO}-FWSY[dW]LRP-NHEt) it was 0.2 nM; in that of `CCNC(=O)[C@@H]1CCCN1C(=O)[C@H](CCCNC(=N)N)NC(=O)[C@H](CC(C)C)NC(=O)[C@@H](Cc1ccc2ccccc2c1)NC(=O)[C@H](Cc1ccc(O)cc1)NC(=O)[C@H](CO)NC(=O)[C@@H](Cc1c[nH]c2ccccc12)NC(=O)CCc1ccc(F)cc1` [Compound 94, (3-9)[N-(3-(4-Fluorophenyl)propionyl) -D-Trp^3 -D-2-Nal^6 -Pro^9 NHEt]LHRH] ({Propanoyl(3-(4-F-phenyl))}-[dW]SY[d2Nal]LRP-NHEt), 0.309 nM; in that of `CCNC(=O)[C@@H]1CCCN1C(=O)[C@H](CCCNC(=N)N)NC(=O)[C@H](CC(C)C)NC(=O)[C@@H](CC(C)C)NC(=O)[C@H](Cc1ccc(O)cc1)NC(=O)[C@H](CO)NC(=O)[C@H](Cc1c[nH]c2ccccc12)NC(=O)Cc1ccccc1` [Compound 68, (3-9)[N-(Phenylacetyl)-Trp^3 -D-Leu^6 -Pro^9 -NHEt]LHRH] (PhAc-WSY[dL]LRP-NHEt), 21.9 nM.
In the case of `CCNC(=O)[C@@H]1CCCN1C(=O)[C@H](CCCN=C(N)N)NC(=O)[C@H](CC(C)C)NC(=O)[C@@H](CC(C)C)NC(=O)[C@H](Cc1ccc(O)cc1)NC(=O)[C@H](CO)NC(=O)CCc1cccnc1` [Compound 41, (4-9)[N-(3-(3-Pyridyl)propionyl)-Ser^4 -D-Leu^6 -Pro^9 -NHEt]LHRH] ({Propanoyl(3-(3-pyridyl))}-SY[dL]LRP-NHEt), the Ki is 1740 nM.
`CCNC(=O)[C@@H]1CCCN1C(=O)[C@H](CCCNC(=N)N)NC(=O)[C@H](CC(C)C)NC(=O)[C@@H](Cc1c[nH]c2ccccc12)NC(=O)[C@H](Cc1ccc(O)cc1)NC(=O)[C@H](CO)NC(=O)[C@H](Cc1c[nH]c2ccccc12)NC(=O)CCc1c[nH]cn1` [Compound 61, N-[3-(4-Imidazolyl)propionyl]-Trp-Ser-Tyr-D-Trp-Leu-Arg-ProNHEt] (Desaminohistidyl-WSY[dW]LRP-NHEt): the Ki was 0.427 nM.
For the compound `CCNC(=O)[C@@H]1CCCN1C(=O)[C@H](CCCNC(=N)N)NC(=O)[C@H](CC(C)C)NC(=O)[C@@H](Cc1cccs1)NC(=O)[C@H](Cc1ccc(O)cc1)NC(=O)[C@H](CO)NC(=O)CCc1c[nH]c2ccccc12` [Compound 80, (4-9)[N-(3-(3-Indole)propionyl) -Ser^4 -D-Thia^6 -Pro^9 NHEt]LHRH] ({Propanoyl(3-indol-3-yl)}-SY[d2Thi]LRP-NHEt), the Ki is 50.1 nM.
For `CCNC(=O)[C@@H]1CCCN1C(=O)[C@H](CCCNC(=N)N)NC(=O)[C@H](CC(C)C)NC(=O)[C@@H](CC1CCCCC1)NC(=O)[C@H](Cc1ccc(O)cc1)NC(=O)[C@H](COCc1ccccc1)NC(=O)Cc1cccc2ccccc12` [Compound 33, (4-9)[N-(1-Naphthylacetyl)-Ser^4 (OBzl)-D-Cha^6 -Pro^9 -NHEt]LHRH] ({Acetyl(1-naphthyl)}-S(Bn)Y[dCha]LRP-NHEt), the Ki is 13.8 nM.

Still in this experiment, the particulars now being: table 4; rat pituitary membranes, radioligand 50 pM, 2 hours at 4° C.; read-out: Receptor Binding pkI (converted).
As for `CC(C)C[C@H](NC(=O)[C@@H](CCCCNC(=O)c1cccnc1)NC(=O)[C@H](Cc1ccc(O)cc1)N(C)C(=O)[C@H](CO)NC(=O)[C@@H](Cc1csc2ccccc12)NC(=O)CCc1ccc(F)cc1)C(=O)N[C@@H](CCCCNC(C)C)C(=O)N1CCC[C@H]1C(=O)N[C@H](C)C(N)=O` [Compound 253, (3-10)[N-(3-(4-Fluorophenyl)propionyl)-D-3-Bal^3 -NMeTyr^5 -D-Lys^6 (N-epsilon-nicotinyl)-Lys^8 (N-epsilon-isopropyl)-D-Ala^10]LHRH] ({Propanoyl(3-(4-F-phenyl))}-[dBta]S[NMeY][dK](Nicotinoyl)L[Lys(iPr)]P[dA]-NH2), the Ki was 0.00933 nM.
On to `C[C@@H](NC(=O)[C@@H]1CCCN1C(=O)[C@H](CCCNC(=N)N)NC(=O)[C@H](CC1CCCCC1)NC(=O)[C@@H](CCCCN)NC(=O)[C@H](Cc1ccc(O)cc1)N(C)C(=O)[C@H](CO)NC(=O)[C@@H](Cc1cccc2ccccc12)NC(=O)CCc1ccc(F)cc1)C(N)=O` [Compound 185, (3-10)[N-(3-(4-Fluorophenyl)propionyl)-D-1-Nal^3 -NMeTyr^5 -D-Lys^6 -Cha^7 -D-Ala^10]LHRH] ({Propanoyl(3-(4-F-phenyl))}-[d1Nal]S[NMeY][dK][Cha]RP[dA]-NH2), for which the Ki is 0.0155 nM.
Consider `CCNC(=O)[C@@H]1CCCN1C(=O)[C@H](CCCN=C(N)N)NC(=O)[C@H](CC(C)C)NC(=O)[C@@H](Cc1c[nH]c2ccccc12)NC(=O)[C@H](Cc1ccc(O)cc1)NC(=O)[C@H](CO)NC(=O)[C@H]1CCCN1C(=O)CCc1ccc(F)cc1` [Compound 147, (3-9)[N-(3-(4-Fluorophenyl)propionyl) -D-Pro^3 -D-Trp^6 -Pro^9 NHEt]LHRH] ({Propanoyl(3-(4-F-phenyl))}-[dP]SY[dW]LRP-NHEt), for which the Ki is 0.02 nM.
Take `CC(C)C[C@H](NC(=O)[C@@H](Cc1c[nH]c2ccccc12)NC(=O)[C@H](Cc1ccc(O)cc1)N(C)C(=O)[C@H](CO)NC(=O)[C@@H](Cc1c[nH]c2ccccc12)NC(=O)[C@H](Cc1cccc2ccccc12)NC(=O)N1CCOCC1)C(=O)N[C@@H](CCCNC(=N)N)C(=O)N1CCC[C@H]1C(=O)N[C@H](C)C(N)=O` [Compound 221, (2-10)[N-(alpha-Morpholinocarbonyl)-1-Nal^2 -D-Trp^3,6 -NMeTyr^5 -D-Ala^10]LHRH] ({Morpholide-CO}-[1Nal][dW]S[NMeY][dW]LRP[dA]-NH2): the Ki is 0.204 nM.
For `CC(C)C[C@H](NC(=O)[C@@H](Cc1cccnc1)NC(=O)[C@H](Cc1ccc(O)cc1)N(C)C(=O)[C@H](CO)NC(=O)[C@@H](Cc1cccc2ccccc12)NC(=O)CCc1ccc(F)cc1)C(=O)N[C@@H](CCCNC(=N)N)C(=O)N1CCC[C@H]1C(=O)N[C@H](C)C(N)=O` [Compound 184, (3-10)[N-(3-(4-Fluorophenyl)propionyl)-D-1-Nal^3 -NMeTyr^5 -D-3-Pal^6 -D-Ala^10]LHRH] ({Propanoyl(3-(4-F-phenyl))}-[d1Nal]S[NMeY][d3Pal]LRP[dA]-NH2), the Ki is 0.00631 nM.
For `CC(=O)NCCCC[C@H](NC(=O)c1ccc(F)c(Cl)c1)C(=O)N[C@H](Cc1cccc2ccccc12)C(=O)N[C@@H](CO)C(=O)N(C)[C@@H](Cc1ccc(O)cc1)C(=O)N[C@H](CCCCN)C(=O)N[C@@H](CC(C)C)C(=O)N[C@@H](CCCNC(=N)N)C(=O)N1CCC[C@H]1C(=O)N[C@H](C)C(N)=O` [Compound 214, N-alpha-(3-Chloro-4-Fluorobenzoyl)-Lys(N-epsilon-acetyl)-D-1-Nal-Ser-NMeTyr-D-Lys-Leu-Arg-Pro-D-AlaNH2] (X12-K(Ac)[d1Nal]S[NMeY][dK]LRP[dA]-NH2), the Ki was 0.141 nM.
The same measure, in the same setting: in the case of `CCNC(=O)[C@@H]1CCCN1C(=O)[C@H](CCCNC(=N)N)NC(=O)[C@H](CC(C)C)NC(=O)[C@@H](Cc1c[nH]c2ccccc12)NC(=O)[C@H](Cc1ccc(O)cc1)N(C)C(=O)[C@H](CO)NC(=O)[C@@H](Cc1cccc2ccccc12)NC(=O)CCc1ccc(Br)cc1` [Compound 159, (3-9)[N-(3-(4-Bromophenyl)propionyl)-D -1-Nal^3 -NMeTyr^5 -DTrp^6 -Pro^9 NHEt]LHRH] (X9-[d1Nal]S[NMeY][dW]LRP-NHEt) it was 0.0562 nM; in that of `CC(C)C[C@H](NC(=O)[C@@H](CO)NC(=O)[C@H](Cc1ccc(O)cc1)N(C)C(=O)[C@H](CO)NC(=O)[C@@H](Cc1cccc2ccccc12)NC(=O)CCc1ccc(F)cc1)C(=O)N[C@@H](CCCNC(=N)N)C(=O)N1CCC[C@H]1C(=O)N[C@H](C)C(N)=O` [Compound 181, (3-10)[N-(3-(4-Fluorophenyl)propionyl)-D-1-Nal^3 -NMeTyr^5 -D-Ser^6 -D-Ala^10]LHRH] ({Propanoyl(3-(4-F-phenyl))}-[d1Nal]S[NMeY][dS]LRP[dA]-NH2), 0.00398 nM.
